Laboratory results: patent publication US20230346952A1, “CANNABINOID GLYCOSIDE PRODRUGS AND METHODS OF SYNTHESIS” (priority 2015, published 2023)
Read-outs that look alike come from different tables or passages of the source.

Key:
[1] = target: safety screen panel of human pharmacological targets (Homo sapiens, UniProt Q12809)
[2] = tested on: safety screen panel of human pharmacological targets
[3] = Antimicrobial activity observed in phytocannabinoid glycosylation reaction mixtures; settings: large-scale glycosylation reaction mixtures
[4] = Rat plasma toxicokinetics post VB302 administration at 1,000 mg/kg; settings: both, Sprague Dawley, po, 1000 mg/kg, AUC in plasma, post VB302 oral gavage 1,000 mg/kg, 1, 2, 6, 24 hours, label = analyte in plasma
[5] = Rat plasma toxicokinetics post VB311 administration at 1,000 mg/kg; settings: for relative amount in plasma: label = analyte
[6] = target: T1, human cannabinoid receptor type 1 (CB1R) (Homo sapiens, UniProt P21554); type: binding; settings: 10 µM test compound; 2.0 nanomolar [3H] SR141716A; human recombinant Chem-1 cells; 90 minutes at 37 C
T1 construct: expressed in transfected cells; host or cells: Chem-1 cells

[7] = target: safety screen panel of human pharmacological targets (Homo sapiens, UniProt P21554); test: biochemical; settings: read-out: percent inhibition: CB1 (h) (agonist radioligand)
[8] = tested on: Lallzyme Beta™ (Lallemand); test: In vitro digestion with Lallzyme Beta; settings: 5 mg/ml Lallzyme Beta, 20 mM citrate buffer pH 4.0, 44° C.; HPLC
glycoside hydrolases = test: In vitro digestion screening with commercially available glycoside hydrolases (Table K); settings: Enzyme 1 of Table K
[9] = tested on: Vinotaste Pro (Novozymes); test: In vitro digestion with Vinotaste Pro; settings: same digestion conditions as for Lallzyme Beta; HPLC
[10] = 10 micromolar test article, Adrenergic a1A receptor
[11] = 10 micromolar test article, Adrenergic α2A receptor
[12] = 10 micromolar test article, Benzodiazapine GABA channel
[13] = 10 micromolar test article, Calcium Channel L-Type, Dihydropyridine
[14] = 10 micromolar test article, Dopamine D2S receptor
[15] = 10 micromolar test article, N-Methyl-D-aspartate
[16] = 10 micromolar test article, Phosphodiesterase 4D2
[17] = 10 micromolar test article, Sodium channel
[18] = 10 micromolar test article, Voltage-gated potassium channel
[19] = 10 micromolar test article, results greater than 50% deemed significant
[20] = 24 hours post VB311 oral gavage

Chain of safety screen panel of human pharmacological targets (Homo sapiens, UniProt Q12809) (Q12809 whole entry): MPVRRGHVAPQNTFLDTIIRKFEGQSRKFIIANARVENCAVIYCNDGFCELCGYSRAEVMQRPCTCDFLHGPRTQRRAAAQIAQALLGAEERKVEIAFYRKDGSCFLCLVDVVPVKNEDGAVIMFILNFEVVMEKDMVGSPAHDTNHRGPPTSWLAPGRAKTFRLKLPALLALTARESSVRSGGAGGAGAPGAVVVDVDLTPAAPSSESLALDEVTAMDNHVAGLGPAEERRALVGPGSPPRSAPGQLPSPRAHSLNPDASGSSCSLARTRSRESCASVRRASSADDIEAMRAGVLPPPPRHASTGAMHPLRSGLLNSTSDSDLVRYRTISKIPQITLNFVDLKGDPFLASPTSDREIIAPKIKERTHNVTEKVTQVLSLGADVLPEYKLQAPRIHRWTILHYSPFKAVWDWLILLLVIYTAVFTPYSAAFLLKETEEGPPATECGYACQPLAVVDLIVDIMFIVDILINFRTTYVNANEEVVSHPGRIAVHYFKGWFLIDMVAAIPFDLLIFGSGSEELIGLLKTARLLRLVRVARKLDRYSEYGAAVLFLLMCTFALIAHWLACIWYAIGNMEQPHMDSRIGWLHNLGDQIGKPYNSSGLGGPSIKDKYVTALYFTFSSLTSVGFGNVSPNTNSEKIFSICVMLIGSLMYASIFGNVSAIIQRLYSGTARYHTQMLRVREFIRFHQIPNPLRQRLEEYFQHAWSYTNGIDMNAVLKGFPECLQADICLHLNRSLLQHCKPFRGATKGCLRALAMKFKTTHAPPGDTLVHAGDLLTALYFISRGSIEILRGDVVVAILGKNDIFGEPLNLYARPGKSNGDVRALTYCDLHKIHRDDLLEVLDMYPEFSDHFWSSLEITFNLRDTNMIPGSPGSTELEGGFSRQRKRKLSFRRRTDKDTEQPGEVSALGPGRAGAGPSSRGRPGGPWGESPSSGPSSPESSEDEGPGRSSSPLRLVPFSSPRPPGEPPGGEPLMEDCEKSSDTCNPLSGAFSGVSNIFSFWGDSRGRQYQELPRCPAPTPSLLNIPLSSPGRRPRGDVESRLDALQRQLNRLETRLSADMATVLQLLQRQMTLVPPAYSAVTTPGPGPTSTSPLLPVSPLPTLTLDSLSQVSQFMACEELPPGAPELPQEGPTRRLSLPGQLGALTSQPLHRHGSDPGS
T1 sequence (P21554 whole entry): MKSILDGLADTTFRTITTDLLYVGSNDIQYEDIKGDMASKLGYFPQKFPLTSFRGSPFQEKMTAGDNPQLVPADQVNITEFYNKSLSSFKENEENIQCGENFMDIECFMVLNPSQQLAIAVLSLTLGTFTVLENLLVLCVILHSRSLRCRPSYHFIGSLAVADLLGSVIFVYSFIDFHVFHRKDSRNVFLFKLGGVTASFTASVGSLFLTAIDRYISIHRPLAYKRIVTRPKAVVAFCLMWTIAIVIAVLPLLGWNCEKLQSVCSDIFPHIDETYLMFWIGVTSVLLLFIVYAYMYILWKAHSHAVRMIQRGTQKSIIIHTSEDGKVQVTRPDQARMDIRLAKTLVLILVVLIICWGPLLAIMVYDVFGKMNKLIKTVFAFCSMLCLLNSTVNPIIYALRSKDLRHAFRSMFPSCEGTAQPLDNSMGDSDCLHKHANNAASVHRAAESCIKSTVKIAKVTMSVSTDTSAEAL
Chain of safety screen panel of human pharmacological targets (Homo sapiens, UniProt P21554) (P21554 whole entry): as above

SMILES: CCCCCc1cc(O)c2c(c1)OC(C)(C)[C@@H]1CCC(C)=C[C@@H]21 [VB301, Δ9-Terahydrocannabinol, reference compound]
- percent inhibition: Potassium Channel hERG (human)- [3H] Dofetilide ([1]; human): 67%
- percent inhibition: BZD (central) (agonist radioligand) [2]: 2%
- percent inhibition: Ca2+ channel (L. dihydropyridine site) (antagonist radioligand) [2]: 59%
- percent inhibition: D2S (h) (agonist radioligand) [2]: 13%
- percent inhibition: KV channel (antagonist radioligand) [2]: 5%
- percent inhibition: NMDA (antagonist radioligand) [2]: 10%
- percent inhibition: Na+ channel (site 2) (antagonist radioligand) [2]: 65%
- percent inhibition: PDE4D2 (h) [2]: -11%
- percent inhibition: alpha 1A(h) (antagonist radioligand) [2]: 6%
- percent inhibition: alpha 2A (h) (antagonist radioligand) [2]: 94%
- number of the 44 pharmacological targets whose binding is significantly inhibited or disrupted ([2]; human): 16
- antimicrobial activity [3]: noticeable antimicrobial activity
- AUC [4]: 72 ng·h/mL

SMILES: CCCCCc1cc(O[C@@H]2O[C@H](CO)[C@@H](O)[C@H](O)[C@H]2O)c2c(c1)OC(C)(C)[C@@H]1CCC(C)=C[C@@H]21 [VB302, Δ9THC-1-O-glucopyranoside]
- percent inhibition: Potassium Channel hERG (human)- [3H] Dofetilide ([1]; 10 micromolar test article): -23%
- percent inhibition: alpha 1A(h) (antagonist radioligand) [2, 10]: -5%
- percent inhibition: alpha 2A (h) (antagonist radioligand) [2, 11]: 0%
- percent inhibition: BZD (central) (agonist radioligand) [2, 12]: -10%
- percent inhibition: Ca2+ channel (L. dihydropyridine site) (antagonist radioligand) [2, 13]: 22%
- percent inhibition: D2S (h) (agonist radioligand) [2, 14]: 22%
- percent inhibition: NMDA (antagonist radioligand) [2, 15]: 8%
- percent inhibition: PDE4D2 (h) [2, 16]: -8%
- percent inhibition: Na+ channel (site 2) (antagonist radioligand) [2, 17]: 13%
- percent inhibition: KV channel (antagonist radioligand) [2, 18]: 1%
- number of the 44 pharmacological targets whose binding is significantly inhibited or disrupted [2, 19]: did not significantly alter any of the targets
- AUC [4]: 167000 ng·h/mL
- relative amount in plasma ([5]; 1 hour post VB311 oral gavage): Minor quantities
- relative amount in plasma ([5]; 2 hours post VB311 oral gavage): Minor quantities
- relative amount in plasma ([5]; 6 hours post VB311 oral gavage): predominant THC-glycoside present in the plasma
- relative amount in plasma [5, 20]: relative abundance was greatly increased
- plasma concentration of VB302 relative to VB311 ([5]; after VB311 administration): 2.2 x
- percent displacement of [3H] SR141716A at human CB1R [6]: -3%
- inhibition at 10 µM [7]: -3%
- digestion by Lallzyme Beta (extent / products) [8]: unable to hydrolyze VB302 back to THC

SMILES: CCCCCc1cc(O[C@@H]2O[C@H](CO[C@@H]3O[C@H](CO)[C@@H](O)[C@H](O)[C@H]3O)[C@@H](O[C@@H]3O[C@H](CO)[C@@H](O)[C@H](O)[C@H]3O)[C@H](O)[C@H]2O)c2c(c1)OC(C)(C)[C@@H]1CCC(C)=C[C@@H]21 [VB311]
- percent inhibition: Potassium Channel hERG (human)- [3H] Dofetilide ([1]; 10 micromolar test article): -10%
- percent inhibition: alpha 1A(h) (antagonist radioligand) [2, 10]: -3%
- percent inhibition: alpha 2A (h) (antagonist radioligand) [2, 11]: 8%
- percent inhibition: BZD (central) (agonist radioligand) [2, 12]: 16%
- percent inhibition: Ca2+ channel (L. dihydropyridine site) (antagonist radioligand) [2, 13]: -7%
- percent inhibition: D2S (h) (agonist radioligand) [2, 14]: -6%
- percent inhibition: NMDA (antagonist radioligand) [2, 15]: 3%
- percent inhibition: PDE4D2 (h) [2, 16]: -6%
- percent inhibition: Na+ channel (site 2) (antagonist radioligand) [2, 17]: 5%
- percent inhibition: KV channel (antagonist radioligand) [2, 18]: -5%
- number of the 44 pharmacological targets whose binding is significantly inhibited or disrupted [2, 19]: did not significantly alter any of the targets
- digestion by glycoside hydrolase (activity / product) (glycoside hydrolases): digests VB311 to V310
- digestion by Vinotaste Pro (extent / products) [9]: capable of hydrolyzing
- relative amount in plasma ([5]; 1 hour post VB311 oral gavage): relative majority of glycosides present in the plasma
- relative amount in plasma ([5]; 2 hours post VB311 oral gavage): majority of glycosides present in the plasma
- relative amount in plasma ([5]; 6 hours post VB311 oral gavage): extensively modified
- relative amount in plasma [5, 20]: almost completely digested
- percent displacement of [3H] SR141716A at human CB1R [6]: 3%
- inhibition at 10 µM [7]: 3%
- digestion by Lallzyme Beta (extent / products) [8]: very low activity
